Experimental findings from US10941138B2, “Quinoline and isoquinoline derivatives for treating pain and pain related conditions” (ESTEVE PHARMACEUTICALS, S.A., priority 2016, dated 2021) are described below.

For the assay, the target named is human α2δ-1 subunit of Cav2.2 calcium channel (Homo sapiens (Human), UniProt P54289). Description: Binding assay to human α2δ-1 subunit of Cav2.2 calcium channel ([3H]-Gabapentin). As to conditions: Table 1, human α2δ-1 enriched membranes, read-out: Ki (nM) alpha2delta Hum. Here is the method:
Binding Assay to Human α2δ-1 Subunit of Cav2.2 Calcium Channel.
Human α2δ-1 enriched membranes (2.5 μg) were incubated with 15 nM of radiolabeled [3H]-Gabapentin in assay buffer containing Hepes-KOH 10 mM, pH 7.4.
NSB (non specific binding) was measured by adding 10 μM pregabalin. The binding of the test compound was measured at five different concentrations. After 60 min incubation at 27° C., binding reaction was terminated by filtering through Multiscreen GF/C (Millipore) presoaked in 0.5% polyethyleneimine in Vacuum Manifold Station, followed by 3 washes with ice-cold filtration buffer containing 50 mM Tris-HCl, pH 7.4. Filter plates were dried at 60° C. for 1 h and 30 μl of scintillation cocktail were added to each well before radioactivity reading.
Readings were performed in a Trilux 1450 Microbeta radioactive counter (Perkin Elmer).

A value given as a limit tells only on which side of the number the result lay.

Chain of human α2δ-1 subunit of Cav2.2 calcium channel (P54289 25-1103): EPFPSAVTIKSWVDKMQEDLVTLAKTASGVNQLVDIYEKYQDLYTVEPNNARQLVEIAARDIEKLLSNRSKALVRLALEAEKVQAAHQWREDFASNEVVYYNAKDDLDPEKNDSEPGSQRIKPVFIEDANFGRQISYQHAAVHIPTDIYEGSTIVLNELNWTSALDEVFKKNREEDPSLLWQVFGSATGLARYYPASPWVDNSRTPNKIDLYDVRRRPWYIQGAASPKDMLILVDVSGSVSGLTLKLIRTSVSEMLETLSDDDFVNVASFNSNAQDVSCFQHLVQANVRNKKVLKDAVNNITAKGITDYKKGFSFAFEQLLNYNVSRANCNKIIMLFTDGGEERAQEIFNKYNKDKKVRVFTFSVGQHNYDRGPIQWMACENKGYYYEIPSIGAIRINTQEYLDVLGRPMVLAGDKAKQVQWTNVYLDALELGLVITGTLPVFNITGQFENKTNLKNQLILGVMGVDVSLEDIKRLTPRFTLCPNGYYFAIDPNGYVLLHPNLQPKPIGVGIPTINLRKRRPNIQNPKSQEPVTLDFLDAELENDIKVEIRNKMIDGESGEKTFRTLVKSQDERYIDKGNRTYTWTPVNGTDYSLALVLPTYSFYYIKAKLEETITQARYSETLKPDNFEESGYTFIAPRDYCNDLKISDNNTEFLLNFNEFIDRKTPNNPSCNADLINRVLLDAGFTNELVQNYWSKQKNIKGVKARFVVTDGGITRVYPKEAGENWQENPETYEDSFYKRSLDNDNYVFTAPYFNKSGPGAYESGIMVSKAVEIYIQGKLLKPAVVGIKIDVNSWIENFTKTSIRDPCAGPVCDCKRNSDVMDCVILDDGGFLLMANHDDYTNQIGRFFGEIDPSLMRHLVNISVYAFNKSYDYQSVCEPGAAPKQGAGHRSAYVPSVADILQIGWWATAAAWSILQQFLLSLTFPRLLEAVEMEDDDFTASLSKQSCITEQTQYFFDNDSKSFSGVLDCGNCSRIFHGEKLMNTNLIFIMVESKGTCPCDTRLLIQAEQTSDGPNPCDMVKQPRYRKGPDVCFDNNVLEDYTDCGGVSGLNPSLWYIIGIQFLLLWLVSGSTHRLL

With `CNCCC(Oc1cccc2c(C#N)nccc12)c1cccs1` (stereo not drawn) [Example 75, 5-(3-(Methylamino)-1-(thiophen-2-yl)propoxy)isoquinoline-1-carbonitrile], the Ki is 100 to 500 nM. The value for `c1ccc(CNCCC(Oc2cccc3cnccc23)c2cccs2)cc1` (stereo not drawn) [Example 6, N-benzyl-3-(isoquinolin-5-yloxy)-3-(thiophen-2-yl)propan-1-amine] was no less than 3000 nM; that for `CCNCC[C@H](Oc1cccc2cnccc12)c1cccs1` [Example 92, (S)-N-ethyl-3-(isoquinolin-5-yloxy)-3-(thiophen-2-yl)propan-1-amine] was no less than 3000 nM; that for `CNCCC(Oc1cccc2cnccc12)c1cncc(Cl)c1` (stereo not drawn) [Example 26, 3-(5-chloropyridin-3-yl)-3-(isoquinolin-5-yloxy)-N-methylpropan-1-amine] was no less than 3000 nM.

As to `CNCCC(Oc1cccc2cnccc12)c1cccc(C(F)(F)F)n1` (stereo not drawn) [Example 37, 3-(isoquinolin-5-yloxy)-N-methyl-3-(6-(trifluoromethyl)pyridin-2-yl)propan-1-amine], the Ki was no less than 3000 nM.

On to `CNCC[C@H](Oc1cccc2ccnc(C)c12)c1cccs1` [Example 64, (S)-N-methyl-3-((1-methylisoquinolin-8-yl)oxy)-3-(thiophen-2-yl)propan-1-amine], for which the Ki is no less than 3000 nM. The value for `CNCC[C@@H](Oc1cccc2c(C)nccc12)c1cccs1` [Example 59, (R)-N-methyl-3-((1-methylisoquinolin-5-yl)oxy)-3-(thiophen-2-yl)propan-1-amine] was less than 100 nM; that for `CNCCC(Oc1cccc2c(C(N)=O)nccc12)c1cccs1` (stereo not drawn) [Example 16, 5-(3-(methylamino)-1-(thiophen-2-yl)propoxy)isoquinoline-1-carboxamide] was less than 100 nM; that for `CNCCC(Oc1cccc2ccncc12)c1ccc(C(F)(F)F)nc1` (stereo not drawn) [Example 39, 3-(isoquinolin-8-yloxy)-N-methyl-3-(6-(trifluoromethyl)pyridin-3-yl)propan-1-amine] was no less than 3000 nM. The value for `CNCCC(Oc1cccc2ccncc12)c1nccs1` (stereo not drawn) [Example 70, 3-(Isoquinolin-8-yloxy)-N-methyl-3-(thiazol-2-yl)propan-1-amine] was no less than 3000 nM; that for `CN(C)CCC(Oc1nccc2ccccc12)c1cccs1` (stereo not drawn) [Example 8, 3-(isoquinolin-1-yloxy)-N,N-dimethyl-3-(thiophen-2-yl)propan-1-amine] was no less than 3000 nM. The value for `CNCCC(Oc1ccc2cccnc2c1)c1cccs1` (stereo not drawn) [Example 73, N-methyl-3-(quinolin-7-yloxy)-3-(thiophen-2-yl)propan-1-amine] was 500 to 3000 nM; that for `CNCCC(Oc1cccc2cnccc12)c1cc(C(F)(F)F)ccn1` (stereo not drawn) [Example 29, 3-(isoquinolin-5-yloxy)-N-methyl-3-(4-(trifluoromethyl)pyridin-2-yl)propan-1-amine] was no less than 3000 nM; that for `CNCCC(Oc1cccc2ccncc12)c1ccccn1` (stereo not drawn) [Example 22, 3-(isoquinolin-8-yloxy)-N-methyl-3-(pyridin-2-yl)propan-1-amine] was no less than 3000 nM. With `CNCC[C@H](Oc1cccc2ccncc12)c1ccc(F)s1` [Example 80, (S)-3-(5-Fluorothiophen-2-yl)-3-(isoquinolin-8-yloxy)-N-methylpropan-1-amine], the Ki is 500 to 3000 nM.

For the molecule `CNCCC(Oc1cccc2ncccc12)c1ccccn1` (stereo not drawn) [Example 33, N-methyl-3-(pyridin-2-yl)-3-(quinolin-5-yloxy)propan-1-amine], the Ki is no less than 3000 nM. For the molecule `CNCC[C@@H](Oc1cccc2ncccc12)c1nccs1` [Example 77, (R)—N-methyl-3-(quinolin-5-yloxy)-3-(thiazol-2-yl)propan-1-amine], the Ki lay within 500 to 3000 nM.

Take `CCNCC[C@@H](Oc1cccc2c(C#N)nccc12)c1cccs1` [Example 89, (R)-5-(3-(ethylamino)-1-(thiophen-2-yl)propoxy)isoquinoline-1-carbonitrile]: the Ki is less than 100 nM. The value for `CNCCC(Oc1cccc2ncccc12)c1ccsc1` (stereo not drawn) [Example 57, N-methyl-3-(quinolin-5-yloxy)-3-(thiophen-3-yl)propan-1-amine] was 100 to 500 nM; that for `CCNCC[C@@H](Oc1cccc2cnccc12)c1cccs1` [Example 88, (R)-N-ethyl-3-(isoquinolin-5-yloxy)-3-(thiophen-2-yl)propan-1-amine] was 100 to 500 nM.

For the molecule `CNCCC(Oc1cccc2ccncc12)c1cccc(C(F)(F)F)n1` (stereo not drawn) [Example 24, 3-(isoquinolin-8-yloxy)-N-methyl-3-(6-(trifluoromethyl)pyridin-2-yl)propan-1-amine], the Ki was no less than 3000 nM. Turning to `CCNCC[C@H](Oc1cccc2c(C#N)nccc12)c1cccs1` [Example 91, (S)-5-(3-(ethylamino)-1-(thiophen-2-yl)propoxy)isoquinoline-1-carbonitrile], the Ki lay in the range of 100 to 500 nM.

For the molecule `CNCCC(Oc1ccnc2ccccc12)c1cccs1` (stereo not drawn) [Example 4, N-methyl-3-(quinolin-4-yloxy)-3-(thiophen-2-yl)propan-1-amine], the Ki was no less than 3000 nM. The value for `CNCC[C@H](Oc1cccc2ncccc12)c1nccs1` [Example 76, (S)—N-Methyl-3-(quinolin-5-yloxy)-3-(thiazol-2-yl)propan-1-amine] was 100 to 500 nM; that for `CNCCC(Oc1cccc2cnccc12)c1ccc(C(F)(F)F)nc1` (stereo not drawn) [Example 28, 3-(isoquinolin-5-yloxy)-N-methyl-3-(6-(trifluoromethyl)pyridin-3-yl)propan-1-amine] was no less than 3000 nM; that for `CNCC[C@@H](Oc1cccc2nc(C)cc(C)c12)c1cccs1` [Example 66, (R)-3-((2,4-dimethylquinolin-5-yl)oxy)-N-methyl-3-(thiophen-2-yl)propan-1-amine] was less than 100 nM.

On to `CNCCC(Oc1cccc2cnccc12)c1ccccn1` (stereo not drawn) [Example 23, 3-(isoquinolin-5-yloxy)-N-methyl-3-(pyridin-2-yl)propan-1-amine], for which the Ki is no less than 3000 nM. The value for `CCNCC[C@@H](Oc1cccc2ncccc12)c1cccs1` [Example 93, (R)-N-ethyl-3-(quinolin-5-yloxy)-3-(thiophen-2-yl)propan-1-amine] was 100 to 500 nM; that for `CN(C)CCC(Oc1cccc2cnccc12)c1cccs1` (stereo not drawn) [Example 43, 3-(isoquinolin-5-yloxy)-N,N-dimethyl-3-(thiophen-2-yl)propan-1-amine] was 500 to 3000 nM.

As for `CNCCC(Oc1cccc2ncccc12)C1CCOCC1` (stereo not drawn) [Example 20, N-methyl-3-(quinolin-5-yloxy)-3-(tetrahydro-2H-pyran-4-yl)propan-1-amine], the Ki is no less than 3000 nM.

Consider `CNCCC(Oc1cccc2ccncc12)C1CCOCC1` (stereo not drawn) [Example 19, 3-(isoquinolin-8-yloxy)-N-methyl-3-(tetrahydro-2H-pyran-4-yl)propan-1-amine], for which the Ki was no less than 3000 nM. On to `CNCCC(Oc1cccc2ccncc12)c1ccncc1` (stereo not drawn) [Example 27, 3-(isoquinolin-8-yloxy)-N-methyl-3-(pyridin-4-yl)propan-1-amine], for which the Ki is no less than 3000 nM. The value for `CCNCC[C@H](Oc1cccc2ncccc12)c1cccs1` [Example 90, (S)-N-ethyl-3-(quinolin-5-yloxy)-3-(thiophen-2-yl)propan-1-amine] was 100 to 500 nM; that for `CCNCCC(Oc1cccc2cnccc12)c1cccs1` (stereo not drawn) [Example 5, N-ethyl-3-(isoquinolin-5-yloxy)-3-(thiophen-2-yl)propan-1-amine] was less than 100 nM. The value for `CNCCC(Oc1cccc2ccncc12)c1cccnc1` (stereo not drawn) [Example 21, 3-(isoquinolin-8-yloxy)-N-methyl-3-(pyridin-3-yl)propan-1-amine] was no less than 3000 nM; that for `CNCCC(Oc1cccc2ncccc12)c1ncc(C)s1` (stereo not drawn) [Example 34, N-methyl-3-(5-methylthiazol-2-yl)-3-(quinolin-5-yloxy)propan-1-amine] was 500 to 3000 nM; that for `CNCCC(Oc1cccc2ncccc12)c1ccc(C(F)(F)F)nc1` (stereo not drawn) [Example 40, N-methyl-3-(quinolin-5-yloxy)-3-(6-(trifluoromethyl)pyridin-3-yl)propan-1-amine] was no less than 3000 nM. For the molecule `CNCCC(Oc1cccc2ncccc12)c1cccnc1` (stereo not drawn) [Example 36, N-methyl-3-(pyridin-3-yl)-3-(quinolin-5-yloxy)propan-1-amine], the Ki is no less than 3000 nM. In the case of `CNCC[C@@H](Oc1cccc2ncccc12)c1ccsc1` [Example 63, (R)-N-methyl-3-(quinolin-5-yloxy)-3-(thiophen-3-yl)propan-1-amine], the Ki was 100 to 500 nM. The value for `CNCC[C@@H](Oc1ccc2ncccc2c1)c1cccs1` [Example 7, (R)—N-Methyl-3-(quinolin-6-yloxy)-3-(thiophen-2-yl)propan-1-amine] was no less than 3000 nM; that for `CNCCC(Oc1cccc2ncccc12)c1nc(C)cs1` (stereo not drawn) [Example 32, N-methyl-3-(4-methylthiazol-2-yl)-3-(quinolin-5-yloxy)propan-1-amine] was 100 to 500 nM.

In the case of `CNCCC(Oc1cccc2ncccc12)c1ccncc1` (stereo not drawn) [Example 35, N-methyl-3-(pyridin-4-yl)-3-(quinolin-5-yloxy)propan-1-amine], the Ki is no less than 3000 nM. With `CNCCC(Oc1cccc2ncccc12)c1cc(C(F)(F)F)ccn1` (stereo not drawn) [Example 31, N-methyl-3-(quinolin-5-yloxy)-3-(4-(trifluoromethyl)pyridin-2-yl)propan-1-amine], the Ki is no less than 3000 nM.

As to `CNCC[C@H](Oc1ccc2cnccc2c1)c1cccs1` [Example 55, (S)-3-(isoquinolin-6-yloxy)-N-methyl-3-(thiophen-2-yl)propan-1-amine], the Ki was in the range of 500 to 3000 nM.

For `CNCC[C@H](Oc1cnc2ccccc2c1)c1cccs1` [Example 95, (S)-N-methyl-3-(quinolin-3-yloxy)-3-(thiophen-2-yl)propan-1-amine], the Ki is no less than 3000 nM.
